Measurements from patent publication US20060134197A1, “Method of reducing unpleasant taste and/or unpleasant odor” (priority 2002, published 2006).

Tests used:
[1] = Inhibiting the production of hydrogen sulfide from chicken egg due to heat-decomposition; settings: 10 g egg solution and 5 g saccharide in 50 ml, pH 7.0; 80° C. for 60 minutes; 100 minus relative value, control defined as 100
Text: Ten grams of an egg solution prepared by mixing a commercialized chicken egg with an equal weight of deionized water, and on a dry solid basis 5 g of a precisely measured saccharide sample; i.e. hydrous crystalline α,α-trehalose (food grade, purity 97.0% or more, commercialized by Hayashibara Biochemical Laboratories, Inc., Okayama, Japan), sucrose (a commercialized granulated sugar), a syrup containing saccharide derivatives of α,α-trehalose prepared in the following Example 1, or a syrup containing saccharide derivatives of α,α-trehalose prepared in the following Example 6 (hereinafter, it is called as “hydrogenated syrup containing saccharide derivatives containing α,α-trehalose”); were placed in a 50-ml volume measuring flask, and admixed with 5 ml of 500 mM phosphate buffer (pH 7.0) and deionized water to give a final volume of 50 ml. As a control, 10 g of an egg solution was admixed with deionized water to give a final volume of 50 ml. Five milliliters of each of the samples was placed into a 20-ml volume vial, sealed with a butyl gum cap, and kept at 80° C. for 60 minutes in an incubator. Hydrogen sulfide contained in 10 ml of the resulting headspace gas was measured by “[…] […] And then, the relative rate of inhibiting the production of hydrogen sulfide was calculated by 100 minus the relative value.

[2] = Inhibiting the production of amines from heated minced mackerel (headspace GC); settings: minced mackerel with 5% saccharide solution; for Relative rate of inhibiting the production of dimethylamine / Relative rate of inhibiting the production of trimethylamine: headspace gas; for Relative rate of inhibiting the production of total amine: trimethylamine plus dimethylamine
Description: Five grams of minced mackerel, prepared by mincing commercialized mackerel without head part, internal organs and bone with a mincer to homogeneity, was placed in a 20-ml vial, and admixed with 5 ml of an aqueous solution containing on a dry solid basis 5% of “TREHA®”, a food grade hydrous α,α-trehalose commercialized by Hayashibara Biochemical laboratories, Inc., Okayama, Japan (purity 99.0% or more), sucrose (a commercialized granulated sugar), or a syrupy saccharide mixture containing saccharide derivatives of α,α-trehalose prepared in Example 1. The resulting vials were sealed with a butyl gum cap to prepare test samples. As a control, a vial containing 5 g of the minced mackerel and 5 ml of deionized water was sealed with a butyl gum cap for a control sample. These samples were heated in boiled water for 15 minutes, cooled in running water, and heated at 80° C. for five minutes. The resulting headspace gas was taken from each of the vials and allowed to measure the contents of amines, hydrogen sulfide and aldehydes.
Measurement of the content of amines was carried out by subjecting 2 ml of the headspace gas to analysis by GC-14B gas chromatography, a hydrogen flame ionizing detector commercialized by Shimazu Co., Ltd., Kyoto, Japan, with flowing helium gas as a carrier gas at a flow rate of 1 ml/minute, and using DB-5 capillary column, 30 m in length and 0.25 mm in internal diameter (df=0.25 μm, sprit rate 1/30), commercialized by J & W Company, with an increasing column temperature from 40° C. to 250° C. at a rate of 5° C./minute. The amount of total amine was calculated by totalizing the amount of trimethylamine and dimethylamine.
The values of the production of amines, hydrogen sulfide and aldehydes of each test sample were compared with the value of control defined as 100 to calculate the relative values thereof. And then, the relative rates of inhibiting the production of amines, hydrogen sulfide and aldehydes were respectively calculated by 100 minus each of the relative values.

[3] = Inhibiting the production of hydrogen sulfide from L-cysteine due to heat-decomposition; settings: 2.5 g L-cysteine hydrochloride and 5 g saccharide in 50 ml; 80° C. for 15 minutes; 100 minus relative value, control defined as 100
Text: Two and half grams of precisely weighted L-cysteine hydrochloride (special reagent grade) and on a dry solid basis 5 g of a precisely measured saccharide sample; i.e. hydrous crystalline α,α-trehalose (reagent grade, purity 99.0% or more, commercialized by Hayashibara Biochemical Laboratories, Inc., Okayama, Japan), α-maltosyl α,α-trehalose prepared in the following Example 5 (purity 98.1%), or a reagent grade maltotetraose (purity 97.0% or more, commercialized by Hayashibara Biochemical Laboratories, Inc., Okayama, Japan); were placed in a 50-ml volume measuring flask and dissolved in deionized water to give a final volume of 50 ml. As a control, 2.5 g of precisely measured L-cysteine hydrochloride (special reagent grade) was dissolved in deionized water to give a final volume of 50 ml. Five ml of each sample was place into a 20-ml volume vial, sealed with a butyl gum cap, and kept at 80° C. for 15 minutes in an incubator. Hydrogen sulfide contained in 10 ml of the resulting headspace gas was measured by “GASTECH No. 4 LT”, a hydrogen sulfide detector commercialized by GL Science Corporation, under an aspiration time of one minute. The resulting value of the production of hydrogen sulfide of each test sample was compared with the value of control defined as 100 to calculate the relative value of the production of hydrogen sulfide. And then, the relative rate of inhibiting the production of hydrogen sulfide was calculated by 100 minus the relative value.

[4] = Separately carried panel test of smell of cocoa samples; settings: all of nine panels

OC[C@H]1O[C@H](O[C@H]2O[C@H](CO)[C@@H](O)[C@H](O)[C@H]2O)[C@H](O)[C@@H](O)[C@@H]1O [α,α-Trehalose, α,α-trehalose]
Relative rate of inhibiting the production of hydrogen sulfide [1]: 30 | Relative rate of inhibiting the production of dimethylamine [2]: 44 | Relative rate of inhibiting the production of trimethylamine [2]: 58 | Relative rate of inhibiting the production of total amine [2]: 52 | Relative rate of inhibiting the production of hydrogen sulfide [3]: 52 | Smell of cocoa sample judged by panels [4]: favorite smell

OC[C@H]1O[C@@](CO)(O[C@H]2O[C@H](CO)[C@@H](O)[C@H](O)[C@H]2O)[C@@H](O)[C@@H]1O [Sucrose, sucrose]
Relative rate of inhibiting the production of hydrogen sulfide [1]: 14 | Relative rate of inhibiting the production of dimethylamine [2]: −34 | Relative rate of inhibiting the production of trimethylamine [2]: 12 | Relative rate of inhibiting the production of total amine [2]: −8
